Laboratory results: patent EP2902035B1, “Cell-permeable peptide inhibitors of the JNK signal transduction pathway for use in the treatment of inflammatory eye diseases” (Xigen Inflammation Ltd., priority 2010, dated 2012)

Experiments:
[1] = tested on: Endotoxin-Induced Uveitis (EIU); assay: Scoring of Endotoxin-Induced Uveitis (EIU) by slit lamp; format: in vivo, Lewis rats; settings: scored at 24 hours on a scale from 0 to 5, mean ± SEM
Description: For intravenous (IV) injection, 100 µL of saline (NaCl 0.9%) or the JNK-inhibitor (poly-)peptide of SEQ ID NO: 11 (20 µg/kg in saline) were injected in a tail vein using a 25G-needle connected on a 1 mL syringe (Becton Dickinson, France). For intravitreous (IVT) injection, 5 µL of saline or the JNK-inhibitor (poly-)peptide of SEQ ID NO: 11 (0.2 µg/injection in saline) were injected in both eyes using a 30G disposable needle (BD-microfine syringe, nm Médical, Asnière, France). The IV dose of 20 µg/kg (i.e. 3.5 µg/rat in rats weighing 175g) was chosen according to studies showing that the JNK-inhibitor (poly-)peptide of SEQ ID NO: 11 is active at very low doses in other models. For intravitreous injections, the inventors used the minimal dose used in direct ear application after acute noise trauma in patients. This corresponds to 5% of the dose injected intravenously. […]
In a first set of experiment, 70 rats were randomized into 14 experimental groups with 5 rats per group. […] Clinical ocular inflammation was recorded only at 24 hours (see Scoring of Endotoxin-Induced Uveitis (EIU) section). […]
Animals were examined by slit lamp at 24 hours, the clinical peak of the disease in our experiments. The intensity of clinical ocular inflammation was scored on a scale from 0 to 5 for each eye as described previously 10: grade (0) indicates no inflammation; grade (1) indicates the presence of a minimal iris and conjunctival vasodilation but without the observation of flare or cells in the anterior chamber (AC); grade (2) indicates the presence of moderate iris and conjunctival vessel dilation but without evident flare or cells in the AC; grade (3) indicates the presence of intense iris vessels dilation, flare and less than 10 cells per slit lamp field in the AC; grade (4) indicates the presence of more severe clinical signs than grade 3, with more than 10 cells in the AC with or without the formation of a hypopion; grade (5) indicates the presence of intense inflammatory reaction, fibrin formation in the AC and total seclusion of the pupil. […]

healthy eyes = tested on: healthy eyes; set-up: species or system Lewis rats; settings: rat, in vivo
Description: For immunohistochemistry, eyeballs were collected and fixed for 1h at room temperature in phosphate buffered saline (PBS) containing 4% paraformaldehyde before being rinsed overnight in PBS. The next day, samples were embedded and frozen in optimal cutting-temperature (OCT) compound (Tissue-Tek®, Sakura Finetek, Zoeterwoude, Netherland) and stored at -80°C. Frozen antero-posterior sections of eyes (10 µm thick) were performed at the optic nerve level using a cryostat (Leica CM 3050S, Rueil-Malmaison, France) and mounted on super-frost slides for immunohistochemical analysis.
(§1) A second set of experiment was designed to evaluate the anti-inflammatory effect of the JNK-inhibitor (poly-)peptide of SEQ ID NO: 11 at the cellular and tissue level as well as the biodistribution of this molecule 24 hours after administration. Rats were randomized into 11 experimental groups. 6 groups of rats with uveitis: untreated uveitic rats, rats injected intravenously with NaCl or the JNK-inhibitor (poly-)peptide of SEQ ID NO: 11 and rats injected intravitreously with the vehicle, the JNK-inhibitor (poly-)peptide of SEQ ID NO: 11 or dexamethasone. The 5 additional groups without uveitis were: untreated healthy rats, rats treated by NaCl IV or the JNK-inhibitor (poly-)peptide of SEQ ID NO: 11 IV and rats injected IVT with NaCl or the JNK-inhibitor (poly-)peptide of SEQ ID NO: 11. […]

[2] = tested on: phospho-p44/42 MAPK (Erk1/2); assay: Immunohistochemistry of p-Erk1/2 on ocular sections in EIU; format: in vivo, Lewis rats; settings: 24h
Description: as §1, with “11. Three eyes from separate rats were collected per group and used for immunohistochemistry. Immunostaining of p-Erk1/2 was performed to evaluate the effect of the JNK-inhibitor (poly-)peptide of SEQ ID NO: 11 on the ERK pathway after IV or IVT administration. Sections were permeabilized as described above and incubated in blocking solution containing 0.1% Triton X-100 and 10% FCS (fetal calf serum) in PBS for 1 hour at room temperature.” for “11.”

For CC(C)C[C@@H](NC(=O)[C@@H](Cc1ccccc1)NC(=O)[C@H]1CCCN1C(=O)[C@@H](CCC(N)=O)NC(=O)[C@H](NC(=O)[C@H]1CCCN1C(=O)[C@@H](CCCNC(=N)N)NC(=O)[C@@H](CO)NC(=O)[C@@H](CCC(N)=O)NC(=O)[C@H](N)CC(=O)O)C(C)C)C(=O)N[C@H](CC(N)=O)C(=O)N[C@H](CC(C)C)C(=O)N[C@@H](C(=O)N[C@@H](C(=O)N1CCC[C@@H]1C(=O)N[C@H](CCCNC(=N)N)C(=O)N[C@H](CCCCN)C(=O)N1CCC[C@@H]1C(=O)N[C@H](CCCNC(=N)N)C(=O)N1CCC[C@@H]1C(=O)N1CCC[C@@H]1C(=O)N[C@H](CCCNC(=N)N)C(=O)N[C@H](CCCNC(=N)N)C(=O)N[C@H](CCCNC(=N)N)C(=O)N[C@H](CCC(N)=O)C(=O)N[C@H](CCCNC(=N)N)C(=O)N[C@H](CCCNC(=N)N)C(=O)N[C@H](CCCCN)C(=O)N[C@H](CCCCN)C(=O)N[C@H](CCCNC(=N)N)C(=O)NCC(=O)O)[C@H](C)O)[C@H](C)O [SEQ ID NO: 11], the EIU clinical scores ([1]; 20 µg/kg intravenous (IV) injection at LPS challenge) was 2.0 ± 0.1 A.U, the EIU clinical scores ([1]; intravitreous (IVT) administration at LPS challenge (SEQ ID NO: 11: 0.2 µg/injection)) was 2.2 ± 0.2 A.U and the “inflammatory cell infiltration in healthy eyes” value (healthy eyes) was “No inflammatory cell infiltration”. For the same compound, the “effect on p-Erk1/2 signal in the iris epithelium” value ([2]; iris epithelium) was “no effect” and the “effect on p-Erk1/2 in retinal Müller glial (RMG) cells” value ([2]; neuroretina, administered by either route (IV or IVT)) was “no effect”.
